Results published in patent US8945853B2, “Detection of intracellular binding events by measuring protein abundance” (DiscoveRx Corporation, priority 2012, dated 2015).
Blank lines part the entries; values can stand above or below the compound they belong to.

What was measured:
CYP 17A-PL fusion = CYP 17A-PL fusion (Homo sapiens, UniProt P05093); assay: CYP17A-PL fusion stabilization in HEK cells (FIG. 11); format: cell-based
Description: (§1) HEK cells were transduced with fusion protein expression construct. The cells were then treated with different compounds for 3-6 hrs at 37° C. the fusion proteins were then quantified to analyze the effect of different compounds on the stabilization of fusion proteins.

BRD4 (1)-PL fusion = assay: Bromodomain-PL fusion stability in HEK cells; format: cell-based; conditions: 6 hrs at 37° C.
Description: To study the effect of compound binding, fusion proteins were prepared using fragments of BRD4 (1) (Accession No. NM_058243), BRD2 (1) (Accession No. NM_005104) and BRDT (1) (Accession No. NM_001242806) (SEQ ID NO. 13, 14 and 15 respectively) and prolabel (PL). The expression construct containing the fusion proteins were used to transducer the HEK cells. Cells were plated in a 384 well-plate and incubated overnight at 37° C./5% CO2 to allow the cells to attach and gro.

BCL-2 / PL-Bax = BCL-2 / PL-Bax (Homo sapiens, UniProt P10415); assay: BCL-2 co-expressed with PL-Bax in U2OS cells, disruption by small molecules (FIG. 7A); format: cell-based; conditions: for HillSlope / Bottom (best-fit) / Top (best-fit): PL-Bax; for Bottom (best-fit) / Top (best-fit) / effect on BCL-2 stabilization of Bax: U2OS, overnight; for Bottom (best-fit) / Top (best-fit): luminescence
Sequence of BCL-2 / PL-Bax (P10415 whole entry): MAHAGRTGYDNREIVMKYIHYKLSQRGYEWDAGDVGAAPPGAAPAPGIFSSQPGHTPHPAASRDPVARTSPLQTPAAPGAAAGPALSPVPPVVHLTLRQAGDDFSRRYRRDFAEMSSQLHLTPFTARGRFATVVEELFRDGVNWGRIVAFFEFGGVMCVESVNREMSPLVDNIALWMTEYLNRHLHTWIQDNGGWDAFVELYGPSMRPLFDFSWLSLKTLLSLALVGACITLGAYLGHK
Description: (§2) Interaction of BCL-2 with a peptide test compound (Bim, Bak, and Bax) was studied.
(§3) The native BCL-2 was co-expressed with each of the ProLabel fusions in U2OS cells. Small molecules that are reported to disrupt BCL-2 interactions were then applied to the cells and incubated overnight.
(§4) Cells were transduced with the indicated target PL-fusion and the untagged protein Bcl-2. The cells were treated with the indicated compounds overnight and the remaining target-PL fusion was detected by lysing the cells in the presence of EA and substrate. Luminescence was measured 30 minutes later.

BCL-2 / PL-Bak = BCL-2 / PL-Bak (Homo sapiens, UniProt P10415); assay: BCL-2 co-expressed with PL-Bak in U2OS cells, disruption by small molecules (FIG. 7C); format: cell-based
Sequence of BCL-2 / PL-Bak (P10415 whole entry): as above
Description: as §2, §3, §4

BCL-2 / PL-Bim = BCL-2 / PL-Bim (Homo sapiens, UniProt P10415); assay: BCL-2 co-expressed with PL-Bim in U2OS cells, disruption by small molecules (FIG. 7B); format: cell-based; conditions: for HillSlope / Bottom (best-fit) / Top (best-fit): PL-Bim; for Bottom (best-fit) / Top (best-fit) / effect on BCL-2/Bim stabilization: U2OS, overnight; for Bottom (best-fit) / Top (best-fit): luminescence
Sequence of BCL-2 / PL-Bim (P10415 whole entry): as above
Description: as §2, §3, §4

G9A(918-1198)-PL = G9A(918-1198)-PL (Homo sapiens, UniProt Q96KQ7); assay: Half-life of G9A catalytic domain-PL fusion in A549 cells after cycloheximide (FIG. 10); format: cell-based, humans
Sequence of G9A(918-1198)-PL (Q96KQ7 with tags, fused parts or gaps): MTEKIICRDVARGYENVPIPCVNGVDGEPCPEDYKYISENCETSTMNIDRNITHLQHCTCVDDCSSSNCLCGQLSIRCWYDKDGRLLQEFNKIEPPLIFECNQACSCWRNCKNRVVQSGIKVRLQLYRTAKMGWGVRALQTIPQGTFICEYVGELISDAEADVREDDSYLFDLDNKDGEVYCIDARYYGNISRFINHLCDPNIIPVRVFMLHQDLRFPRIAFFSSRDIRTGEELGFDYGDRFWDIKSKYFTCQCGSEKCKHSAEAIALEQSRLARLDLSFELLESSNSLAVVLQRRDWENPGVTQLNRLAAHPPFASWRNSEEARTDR
Description: Methyltransferases are a group of transferases enzymes involved in DNA methylation. G9a methyltransferase methylates lysine 9 of histone H3 and is present in humans.
The enzyme donor PL fused to the catalytic domain of G9A was expressed in A549 cells, which were plated I a 384-well plate and incubated overnight at 37° C./5% CO2 to allow the cells to attach and grow. […] Both the batches were then treated with cycloheximide to prevent further protein production and the half-life of the fusion protein in both the batches were calculated as shown in FIG. 10. […] UNC0638 is commercially available and is an inhibitor of G9a/GLP methyltransferases. See, e.g. http (colon slash slash) apps.thesgc.org/chemical_probes/UNC0638/#overview, SGC product literature.

[1] = target: T1, CYP 19A amino acids 1-503-PL fusion (Homo sapiens, UniProt P11511); assay: CYP19A-PL fusion stabilization in HEK cells; format: cell-based; conditions: data not shown
T1 construct: expressed in transfected cells; host or cells: HEK
T1 sequence (P11511 1-503): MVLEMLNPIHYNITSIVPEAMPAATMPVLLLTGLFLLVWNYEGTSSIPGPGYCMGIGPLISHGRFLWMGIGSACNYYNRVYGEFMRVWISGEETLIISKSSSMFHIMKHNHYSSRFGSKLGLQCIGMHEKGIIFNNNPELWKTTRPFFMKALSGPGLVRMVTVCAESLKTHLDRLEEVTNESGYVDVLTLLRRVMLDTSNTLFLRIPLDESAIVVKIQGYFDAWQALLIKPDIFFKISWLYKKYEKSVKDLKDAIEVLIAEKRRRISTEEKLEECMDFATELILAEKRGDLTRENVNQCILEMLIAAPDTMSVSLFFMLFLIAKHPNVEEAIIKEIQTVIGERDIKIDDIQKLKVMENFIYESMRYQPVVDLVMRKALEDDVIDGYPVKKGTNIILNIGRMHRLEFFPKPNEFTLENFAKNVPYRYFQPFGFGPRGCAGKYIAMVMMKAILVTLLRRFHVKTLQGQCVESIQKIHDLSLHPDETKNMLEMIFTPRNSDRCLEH
Description: as §1
Arimidex® anastrazole is available from AstraZeneca and is known to bind to aromatase. YM511 (chemical Name: 4-[[(4-Bromophenyl)methyl]-4H-1,2,4-triazol-4-ylamino]benzonitrile) is also an aromatase inhibitor. CYP19 is also known as aromatase.

BLK (241-494)-PL fusion [2] = target: T2, BLK (241-494)-PL fusion (Homo sapiens, UniProt P51451); assay: BLK-PL fusions of varying sequence length treated with dasatinib, EFC chemiluminescence; format: cell-based; design: BLK peptide containing amino acids from 241-494 were fused with the PL; expressed in transfected cells; HEK cells are also named; conditions: 241-494 fusion compared with the other BLK sequence lengths; 3 hours
T2 sequence (P51451 241-494): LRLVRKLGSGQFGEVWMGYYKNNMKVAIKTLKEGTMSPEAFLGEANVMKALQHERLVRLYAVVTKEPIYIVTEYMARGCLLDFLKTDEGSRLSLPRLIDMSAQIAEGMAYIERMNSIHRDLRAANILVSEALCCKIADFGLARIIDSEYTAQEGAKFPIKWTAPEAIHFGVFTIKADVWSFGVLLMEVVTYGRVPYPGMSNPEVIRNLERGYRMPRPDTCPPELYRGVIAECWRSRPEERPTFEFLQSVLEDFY
Description: A number of fusions were constructed that included varying amounts of the protein sequence centered around the kinase active site as defined by homology to other kinases. E.g. fusion containing protein BLK amino acid numbers 241-494, 246-494, 251-494, 256-494, 261-494 and 266-494 were made.
The expression construct containing the fusion protein was used to transduce the HEK cells. The cells were then incubated in the presence of dasatinib for 3 hours.
BLK-PL fusions were then quantified by adding lysis buffer, EA and chemiluminescent substrate. […] Dasatinib, N-(2-chloro-6-methylphenyl)-2-[[6-[4-(2-hydroxyethyl)-1-piperazinyl]-2-methyl-4-pyrimidinyl]amino]-5-thiazole carboxamide monohydrate, is an oral multi-BCR/ABL and Src family tyrosine kinase inhibitor approved for use in patients with chronic myelogenous leukemia (CML).
Results showing the binding of dasatinib to BLK containing amino acid sequence 241-494 are depicted in FIG. 3. The expression plasmids (e.g. 241-494) indicated in the legend are named to show the amino acid locations of the start and stop of the BLK sequence used. The plasmids were used to transduce parental U2OS cells. The cells were then treated with dasatanib for 3 hrs and the BLK-PL fusions were quantified by adding lysis buffer, EA and chemiluminescent substrate.

BLK (241-494)-PL fusion [3] = target: T2, BLK (241-494)-PL fusion; assay: Specificity of binding compounds, BLK-PL fusion in U2OS cells (FIG. 9B); format: cell-based; design: BLK peptide containing amino acids from 241-494 were fused with the PL; expressed in transfected cells
[4] = PL-Bak, U2OS, overnight, luminescence

Sequence of CYP 17A-PL fusion (P05093 with tags, fused parts or gaps): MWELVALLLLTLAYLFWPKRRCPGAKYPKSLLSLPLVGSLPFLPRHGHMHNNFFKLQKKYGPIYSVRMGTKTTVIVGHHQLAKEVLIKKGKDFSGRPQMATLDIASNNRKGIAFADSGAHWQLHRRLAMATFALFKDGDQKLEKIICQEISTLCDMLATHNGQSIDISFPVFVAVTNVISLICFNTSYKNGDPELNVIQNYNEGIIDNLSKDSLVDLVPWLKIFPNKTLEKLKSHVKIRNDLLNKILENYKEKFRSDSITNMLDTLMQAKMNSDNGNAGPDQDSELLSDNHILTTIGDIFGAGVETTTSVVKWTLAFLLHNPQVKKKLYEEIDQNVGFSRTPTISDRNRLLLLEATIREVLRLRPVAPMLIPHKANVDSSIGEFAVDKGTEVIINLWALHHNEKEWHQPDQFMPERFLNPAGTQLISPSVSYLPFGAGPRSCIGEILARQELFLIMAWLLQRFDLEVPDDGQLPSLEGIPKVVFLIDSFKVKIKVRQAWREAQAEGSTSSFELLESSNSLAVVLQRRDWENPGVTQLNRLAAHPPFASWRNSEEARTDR

- HillSlope (BCL-2 / PL-Bax): −1.485
- Bottom (best-fit) (BCL-2 / PL-Bax): 6973
- Top (best-fit) (BCL-2 / PL-Bax): 31292
- effect on BCL-2 stabilization of Bax (BCL-2 / PL-Bax): somewhat similar effect
- HillSlope (BCL-2 / PL-Bak; PL-Bak): −0.5348
- Bottom (best-fit) (BCL-2 / PL-Bak; [4]): 5446
- Top (best-fit) (BCL-2 / PL-Bak; [4]): 11602
- effect on BCL-2 binding to and stabilization of Bak (BCL-2 / PL-Bak; overnight, U2OS): little effect
- HillSlope (BCL-2 / PL-Bim): −1.898
- Bottom (best-fit) (BCL-2 / PL-Bim): 7774
- Top (best-fit) (BCL-2 / PL-Bim): 139290
- effect on BCL-2/Bim stabilization (BCL-2 / PL-Bim): prevented the stabilizing effect
Structure (SMILES): CN(C)CC[C@H](CSc1ccccc1)Nc1ccc(S(=O)(=O)NC(=O)c2ccc(N3CCN(Cc4ccccc4-c4ccc(Cl)cc4)CC3)cc2)cc1[N+](=O)[O-] [ABT-737]

- HillSlope (BCL-2 / PL-Bax): −1.216
- Bottom (best-fit) (BCL-2 / PL-Bax): 5900
- Top (best-fit) (BCL-2 / PL-Bax): 31800
- effect on BCL-2 stabilization of Bax (BCL-2 / PL-Bax): somewhat similar effect
- HillSlope (BCL-2 / PL-Bak; PL-Bak): −0.4082
- Bottom (best-fit) (BCL-2 / PL-Bak; [4]): −14342
- effect on BCL-2 binding to and stabilization of Bak (BCL-2 / PL-Bak; overnight, U2OS): little effect
- HillSlope (BCL-2 / PL-Bim): −1.635
- Bottom (best-fit) (BCL-2 / PL-Bim): 6740
- Top (best-fit) (BCL-2 / PL-Bim): 136900
- effect on BCL-2/Bim stabilization (BCL-2 / PL-Bim): prevented the stabilizing effect
Structure (SMILES): CC1(C)CCC(c2ccc(Cl)cc2)=C(CN2CCN(c3ccc(C(=O)NS(=O)(=O)c4ccc(N[C@H](CCN5CCOCC5)CSc5ccccc5)c(S(=O)(=O)C(F)(F)F)c4)cc3)CC2)C1 [ABT-263]

- HillSlope (CYP 17A-PL fusion): 1083
- stabilization of CYP 17 A domain fusion (CYP 17A-PL fusion; HEK cells, 3-6 hrs): stabilization
- Bottom (best-fit) (CYP 17A-PL fusion; HEK cells, 3-6 hrs at 37° C.): 1.230e+006
- Top (best-fit) (CYP 17A-PL fusion; HEK cells, 3-6 hrs at 37° C.): 2.348e+006
Structure (SMILES): CC(=O)N1CCN(c2ccc(OCC3COC(Cn4ccnc4)(c4ccc(Cl)cc4Cl)O3)cc2)CC1 (stereo not drawn) [Ketoconazole]

Continued, compound first:

Structure (SMILES): C[C@]12CC[C@H](O)CC1=CC[C@@H]1[C@@H]2CC[C@]2(C)C(c3cccnc3)=CC[C@@H]12 [Abiraterone]
- EC50 (CYP 17A-PL fusion; stabilization, gain of signal): 0.252 nM

Structure (SMILES): Cc1sc2c(c1C)C(c1ccc(Cl)cc1)=N[C@@H](CC(=O)OC(C)(C)C)c1nnc(C)n1-2 [JQ1]
- stability of fusion protein following compound binding (BRD4 (1)-PL fusion): increase in stability

Structure (SMILES): COc1cc2c(NC3CCN(C(C)C)CC3)nc(C3CCCCC3)nc2cc1OCCCN1CCCC1 [UNC0638]
- half-life of fusion protein compared to fusion protein not exposed to the binding partner (G9A(918-1198)-PL; A549 cells, cycloheximide): greater
- percent change in luminescence (G9A(918-1198)-PL; after 100 minutes of cycloheximide, A549 cells pretreated 6 hrs): minimal

Structure (SMILES): N#Cc1ccc(N(Cc2ccc(Br)cc2)n2cnnc2)cc1 [YM511, 4-[[(4-Bromophenyl)methyl]-4H-1,2,4-triazol-4-ylamino]benzonitrile]
- stabilization of CYP 19A fusion peptide [1]: stabilized

Structure (SMILES): CC(C)(C#N)c1cc(Cn2cncn2)cc(C(C)(C)C#N)c1 [anastrazole]
- stabilization of CYP 19A fusion peptide [1]: stabilized

Structure (SMILES): Cc1nc(Nc2ncc(C(=O)Nc3c(C)cccc3Cl)s2)cc(N2CCN(CCO)CC2)n1.O [dasatinib, N-(2-chloro-6-methylphenyl)-2-[[6-[4-(2-hydroxyethyl)-1-piperazinyl]-2-methyl-4-pyrimidinyl]amino]-5-thiazole carboxamide monohydrate]
- affinity of BLK-PL fusion with dasatinib (BLK (241-494)-PL fusion [2]): highest affinity
- binding specificity (BLK (241-494)-PL fusion [3]; BLK-PL vs MEK-PL fusions): specific for binding to the BLK fusion containing the ATP binding site
- signal (BLK-PL fusion) compared to cells incubated with U0126 and PD035901 (BLK (241-494)-PL fusion [3]; U2OS cells, over a period of time): gain in signal
